Molecules are shown by their SMILES.

This test concerns the target T1, Prostaglandin D2 receptor (Rattus norvegicus, UniProt Q9R261).
T1 sequence (Q9R261 whole entry): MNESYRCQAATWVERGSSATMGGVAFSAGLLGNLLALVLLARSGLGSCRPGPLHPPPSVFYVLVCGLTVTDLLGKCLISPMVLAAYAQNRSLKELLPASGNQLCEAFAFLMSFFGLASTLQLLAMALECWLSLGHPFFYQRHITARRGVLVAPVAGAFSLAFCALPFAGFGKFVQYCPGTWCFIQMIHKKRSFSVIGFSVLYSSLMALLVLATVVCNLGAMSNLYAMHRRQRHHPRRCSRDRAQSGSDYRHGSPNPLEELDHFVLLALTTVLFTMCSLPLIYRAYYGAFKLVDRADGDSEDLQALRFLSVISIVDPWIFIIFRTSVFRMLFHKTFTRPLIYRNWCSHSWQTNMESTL
As to `CCCCC[C@@H](O)/C=C/[C@H]1[C@H](O)CC(=O)[C@@H]1CCCCCCC(=O)O`, the affinity corresponds to a Ki of 3760 nM. That is a single-digit micromolar value.
As for `CCCCC[C@H](O)/C=C/[C@@H]1[C@@H](CC(=O)CCCCC(=O)O)[C@@H](O)C[C@H]1O` [6-KETO-PROSTAGLANDIN F1ALPHA], the figure is greater than 10000 nM.
Consider `CCCCC[C@H](O)/C=C/C1[C@H](O)C[C@H](O)[C@@H]1C/C=C\CCCC(=O)O` (stereo partly drawn) [(Z)-7-[(1R,3R,5S)-3,5-Dihydroxy-2-((E)-(S)-3-hydroxy-oct-1-enyl)-cyclopentyl]-hept-5-enoic acid], for which affinity was put at a Ki of 693 nM.
For `CCCCC[C@H](O)C=C[C@H]1C=CC(=O)[C@@H]1C/C=C\CCCC(=O)O` [(Z)-7-[(1R,5S)-2-oxidanylidene-5-[(E,3S)-3-oxidanyloct-1-enyl]cyclopent-3-en-1-yl]hept-5-enoic acid], the Ki – broadly, a dissociation constant, usually derived from enzyme kinetics or from competition with a known ligand – is greater than 10000 nM.
In the case of `CCCCCC(O)CC=C1C(=O)C=CC1CC=CCCCC(=O)O` (stereo unspecified) [CAS_41598-07-6] it was 19 nM; in that of `CCCCCC(O)C=CC1C(=O)CC(O)C1CC=CCCCC(=O)OC` (stereo unspecified) [CAS_114676], 27 nM; in that of `CCCCC[C@H](O)/C=C/[C@H]1[C@H](O)CC(=O)[C@@H]1C/C=C\CCCC(=O)O` [DINOPROSTONE], 2950 nM.
As for `CCCCCC(O)C=CC1C(=O)CC(O)C1CCCCCCC(=O)O` (stereo unspecified) [NSC_205449], the figure is 523 nM; as for `CCCCCC(O)C=CC1=C(CC=CCCCC(=O)O)C(=O)CC1` (stereo unspecified) [NSC_5280881], greater than 10000 nM.
As to `CCCCCC(O)C=CC1C(O)CC2OC(=CCCCC(=O)O)CC21` (stereo unspecified) [NSC_5282411], the affinity, expressed as Ki, was 3540 nM.
For `CCCCC[C@H](O)/C=C/[C@H]1OC(O)C[C@H](O)[C@@H]1C/C=C\CCCC(=O)O` (stereo partly specified) [THROMBOXANE B2], the affinity, expressed as Ki, was 4200 nM.

For the origin of these results see BindingDB's records for PubMed 6292197 (Kyoto University, 1982).
